Results on six compounds are retold here after ChEMBL document CHEMBL3352585, “2013 Philip S. Portoghese Medicinal Chemistry Lectureship: drug discovery targeting allosteric sites” (J Med Chem, 2014).

pEC50, pIC50: −log10 of the molar value. A value given as a limit tells only on which side of the number the result lay.

Assay [1] has as its target T1, Muscarinic acetylcholine receptor M5 (Homo sapiens, UniProt P08912).
T1 sequence (P08912 whole entry): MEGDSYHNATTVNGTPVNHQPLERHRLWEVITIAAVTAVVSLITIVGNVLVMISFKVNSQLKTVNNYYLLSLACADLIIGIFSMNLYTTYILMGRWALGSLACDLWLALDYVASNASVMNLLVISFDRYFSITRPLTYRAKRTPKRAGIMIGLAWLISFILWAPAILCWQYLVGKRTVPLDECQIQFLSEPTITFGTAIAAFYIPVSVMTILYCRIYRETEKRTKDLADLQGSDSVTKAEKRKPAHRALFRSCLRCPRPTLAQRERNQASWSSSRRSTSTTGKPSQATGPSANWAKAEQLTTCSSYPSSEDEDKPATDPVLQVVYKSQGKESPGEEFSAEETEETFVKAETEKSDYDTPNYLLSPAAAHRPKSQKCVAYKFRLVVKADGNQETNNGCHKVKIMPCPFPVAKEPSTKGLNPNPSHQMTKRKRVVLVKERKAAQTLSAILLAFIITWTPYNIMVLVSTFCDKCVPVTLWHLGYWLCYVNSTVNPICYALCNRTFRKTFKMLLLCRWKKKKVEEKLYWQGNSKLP
Nature of the assay: Allosteric agonist activity at human muscarinic acetylcholine receptor M5.

The target of assay [2] is T1, Muscarinic acetylcholine receptor M5. Put plainly: Negative allosteric modulator activity at human muscarinic acetylcholine receptor M5 expressed in CHO cells by fluorometric imaging plate reader. The format is cell-based.
Assay [3] has the same target. Nature of the assay: Silent allosteric modulator activity at human muscarinic acetylcholine receptor M5 expressed in CHO cells by fluorometric imaging plate reader. The format is cell-based.
Assay [4] has the same target. Put plainly: Positive allosteric modulator activity at human muscarinic acetylcholine receptor M5 expressed in CHO cells by fluorometric imaging plate reader. The assay is classed as cell-based.
Assay [5] deals with T2, Serine/threonine-protein kinase Sgk1 (Homo sapiens, UniProt O00141).
T2 sequence (O00141 whole entry): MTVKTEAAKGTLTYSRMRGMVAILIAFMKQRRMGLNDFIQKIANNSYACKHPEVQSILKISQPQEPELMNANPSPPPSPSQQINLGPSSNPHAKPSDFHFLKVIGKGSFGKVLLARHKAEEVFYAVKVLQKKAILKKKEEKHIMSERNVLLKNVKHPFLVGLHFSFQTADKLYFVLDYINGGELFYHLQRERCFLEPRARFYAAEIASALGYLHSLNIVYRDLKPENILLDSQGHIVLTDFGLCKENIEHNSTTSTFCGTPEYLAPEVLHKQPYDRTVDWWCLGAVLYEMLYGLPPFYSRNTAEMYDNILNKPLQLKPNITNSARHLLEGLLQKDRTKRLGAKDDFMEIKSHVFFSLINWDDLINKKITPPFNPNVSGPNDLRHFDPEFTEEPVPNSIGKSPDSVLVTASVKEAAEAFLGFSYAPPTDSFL
Nature of the assay: Inhibition of SGK (unknown origin).

The nature of assay [6]: Inhibition of PKA (unknown origin). Further details: species or system Homo sapiens.
Another assay has as its target Protein kinase C (PKC). Put plainly: Inhibition of PKC (unknown origin). On the set-up: species or system Homo sapiens.

Take `O=C(N[C@H]1C[C@H](O)C1)c1ccc(C#Cc2cccc(F)c2)cn1`: the pEC50 in assay [1] is 6.40.

On to `COc1cccc(/C=N/N=C/c2cccc(OC)c2)c1`, for which the pEC50 in assay [2] was 5.52.

In assay [3], `Clc1cccc(/C=N/N=C/c2cccc(Cl)c2)c1` had a pEC50 of 5.12.

Regarding `O=C(N[C@H]1C[C@@H](O)C1)c1ccc(C#Cc2cccc(F)c2)cn1`, the negative logarithm of the EC50 (pEC50) in assay [4] was 7.48.

On to `CC(C)(N)c1ccc(-c2nc3ccccc3nc2-c2ccccc2)cc1`, for which the negative logarithm of the IC50 (pIC50) in assay [5] and in assay [6] was less than 3.60 each time. On Protein kinase C (PKC), this compound registered an IC50 of more than 250 µM.

As for `Fc1cccc(/C=N/N=C/c2cccc(F)c2)c1`, the pEC50 in assay [4] is 5.59.

A word on the pEC50: it is −log10 of the EC50, conventionally taken in molar units. Broadly, the pIC50 is −log10 of the IC50, conventionally taken in molar units. Read a high pIC50 as a low IC50. What is called IC50 is the concentration that inhibits the measured activity by half.
